Assays:
[1] = target: AChE (Homo sapiens, UniProt P22303); assay: Effect on AChE activity (modified Ellman's method); assay type: biochemical; details: samples 3 mM/dm^3 in DMSO, 0.035 mL; mean ± SEM, n = 3
From the text: Neurodegenerative diseases are associated with the progressive damage of neurons. During the development of these diseases, there is a loss of nerve cells and a deficiency of […], serotonin, and norepinephrine levels. The ability to inhibit acetyl- (AChE) and butyrylcholinesterase (BChE) activities is seen, among others, in organophosphorus compounds, carbamate insecticides, phenoxyacetic pesticides, and hydrogen peroxide, as well as aliphatic ketones with the carbons C4–C9, e.g., 2,5-hexandione. AChE and BChE show differences in their susceptibility to inhibitors, behaviour in situations involving excess substrate, or substrate binding specificity. Unlike, other esterases, both enzymes hydrolyse choline esters at very high speeds. Thus, in our work, the modified Elman’s method was used to investigate the anti-AChE and anti-BChE effects of curcuminoid chalcone.
(§1) The samples were dissolved in DMSO (Sigma D4540) to obtain a concentration of 3 mM/dm^3.
The analysis was performed strictly as described by Studzińska-Sroka et al., except that the volume of the tested samples added to the reaction mixture was 0.035 mL.

[2] = Hydroxyl radical antioxidant capacity (HORAC); details: samples 1 mg/mL DMSO; mean ± SEM, n = 3
[3] = target: T1, glutathione reductase (GR) (Homo sapiens, UniProt P00390); assay: Effect on GR activity; assay type: biochemical; details: samples 3 mM/dm^3 in DMSO; mean ± SEM, n = 3
T1 sequence (P00390 44-522): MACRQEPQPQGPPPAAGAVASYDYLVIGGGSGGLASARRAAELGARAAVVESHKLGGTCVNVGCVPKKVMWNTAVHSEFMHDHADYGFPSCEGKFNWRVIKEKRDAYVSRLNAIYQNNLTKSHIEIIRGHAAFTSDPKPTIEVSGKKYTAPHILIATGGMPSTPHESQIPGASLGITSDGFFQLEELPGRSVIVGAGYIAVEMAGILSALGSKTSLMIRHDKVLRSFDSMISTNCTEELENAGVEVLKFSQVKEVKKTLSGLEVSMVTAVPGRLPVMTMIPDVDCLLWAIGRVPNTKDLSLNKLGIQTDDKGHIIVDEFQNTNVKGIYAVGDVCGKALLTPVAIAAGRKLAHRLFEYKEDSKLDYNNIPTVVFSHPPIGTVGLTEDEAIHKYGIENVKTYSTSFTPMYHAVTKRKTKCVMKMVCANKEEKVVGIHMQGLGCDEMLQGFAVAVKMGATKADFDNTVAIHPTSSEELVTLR
Description: (§2) We decided to extend the study by measuring the compounds’ ability to inhibit glutathione reductase (GR) and GPx activities, the human cells’ main endogenous enzymatic defence systems. Therefore, we checked the influence of some curcuminoid chalcones on GR and GPx using in vitro spectroscopic methods (Table 2). Moreover, the effects of curcuminoid chalcones on CAT activity were estimated (Table 2).
as §1
(§3) The analyses were performed strictly as described by Studzińska-Sroka et al..

[4] = target: BChE (Homo sapiens, UniProt P06276); assay type: biochemical; details: samples 3 mM/dm^3 in DMSO, 0.035 mL; mean ± SEM, n = 3
[5] = target: T2, COX-2 (Homo sapiens, UniProt P35354); assay: Effect on COX-2 activity; assay type: biochemical; details: samples 3 mM/dm^3 in DMSO, 0.02 mL; mean ± SEM, n = 3
T2 sequence (P35354 18-604): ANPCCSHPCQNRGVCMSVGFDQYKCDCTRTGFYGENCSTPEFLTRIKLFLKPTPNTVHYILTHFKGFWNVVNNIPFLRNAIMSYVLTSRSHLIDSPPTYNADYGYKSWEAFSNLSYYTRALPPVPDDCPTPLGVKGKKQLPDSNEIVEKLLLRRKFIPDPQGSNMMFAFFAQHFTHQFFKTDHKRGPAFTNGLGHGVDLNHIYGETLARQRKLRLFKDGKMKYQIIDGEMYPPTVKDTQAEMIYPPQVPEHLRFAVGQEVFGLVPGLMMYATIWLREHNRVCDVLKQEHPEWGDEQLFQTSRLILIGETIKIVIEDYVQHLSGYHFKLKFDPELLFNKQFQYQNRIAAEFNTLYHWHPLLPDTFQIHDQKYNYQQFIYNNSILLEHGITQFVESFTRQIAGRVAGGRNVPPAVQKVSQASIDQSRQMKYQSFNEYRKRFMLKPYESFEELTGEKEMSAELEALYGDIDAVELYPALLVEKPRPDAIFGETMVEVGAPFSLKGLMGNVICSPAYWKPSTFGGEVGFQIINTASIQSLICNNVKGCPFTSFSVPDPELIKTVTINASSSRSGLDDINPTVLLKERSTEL

[6] = test system: glutathione peroxidase (GPx); assay: Effect on GPx activity; assay type: biochemical; details: samples 3 mM/dm^3 in DMSO; mean ± SEM, n = 3
Description: as §2, §1, §3

[7] = target: T3, catalase (CAT) (Aspergillus niger, UniProt P55303); assay: Effect on CAT activity; assay type: biochemical; details: samples 3 mM/dm^3 in DMSO, 0.01 mL; mean ± SEM, n = 3
T3 construct: purchased Sigma C3515
Description: as §1
The method used by Watanabe et al. was used with the following modifications. The reaction mixture was composed of 0.02 mL of EDTA solution (56.5 mM), 0.01 mL of ^the sample, 0.02 mL of 3% H2O2 solution (Sigma H1009), and 0.02 mL of catalase solution (4000-fold diluted, Sigma C3515) (all reagents except the tested sample were diluted in TRIS buffer, pH 7.0, 1 mol/dm^3). The volume was completed to 0.31 mL by the same buffer solution. In a blank sample, DMSO (Sigma D4540) replaced the tested sample. The background of the sample was measured in a mixture composed of 0.01 mL of the sample completed to 0.31 mL by the buffer. The absorbance was read at 240 nm directly after the mixing and after 5 min of incubation (room temperature). The decreased absorbance (depletion of H2O2) in the tested and blank samples was compared. The calibration curve was produced using eleven H2O2 solutions (0.5693–5.693 mM/dm^3). The results are expressed in % inhibition and as H2O2 depletion (mmol of depleted H2O2/dm^3 min).

[8] = test system: SCC-25 cells; assay: Sonodynamic cytotoxicity, MTT test; assay type: cell-based, human; details: 40 µM; for Reduction of viability of SCC-25 cells, compound combined with US: 8 h, then US 3 min, 3 MHz, 0.8 W/cm^2, MTT 6 h later, compared to untreated cells
[9] = temperatures below 30 °C ref 43; cited from earlier work
[10] = test system: FaDu cells; assay: Sonodynamic cytotoxicity, MTT test; assay type: cell-based, human; details: 40 µM, 8 h, then US 3 min, 3 MHz, 0.8 W/cm^2; MTT 6 h later; compared to untreated cells
Description: The cytotoxic effect and sonosensitising properties of selected synthesised chalcone derivatives were evaluated on human SCC-25 tongue and FaDu throat cancer cell lines using the MTT test (Figure 5 and Figure 6).
SCC-25 and FaDu human squamous cell carcinoma cell lines were purchased from the American Type Culture Collection (ATCC). The cells were cultivated in an incubator under optimal culture conditions (temperature: 37 °C; humidity: 95%; carbon dioxide content: 5%). The SCC-25 cell line was cultured in phenol red-free DMEM:F-12 medium complemented with 10% FBS, 2.5 mM L-glutamine, penicillin (100 U/mL), and streptomycin (0.1 mg/mL). The FaDu cells were maintained in phenol red-free Eagle’s Minimum Essential Medium (EMEM) supplemented with 10% fetal bovine serum (FBS), 2.5 mM L-glutamine, penicillin (100 U/mL), and streptomycin (0.1 mg/mL). For the experiments, confluent stock cultures were harvested using the trypsin–EDTA solution and seeded in 35-mm-diameter Petri plates at a density of 1 × 10^6. They were allowed to attach overnight, and the tested compounds were then added at a concentration of 40 µM. Control cells were maintained under the same conditions with 0.1% DMSO. […] The absorbance was measured using an Elx-800 plate reader (BioTek, Bad Friedrichshall, Germany) at 570 nm (reference wavelength 650 nm).

Chain of AChE (P22303 32-614): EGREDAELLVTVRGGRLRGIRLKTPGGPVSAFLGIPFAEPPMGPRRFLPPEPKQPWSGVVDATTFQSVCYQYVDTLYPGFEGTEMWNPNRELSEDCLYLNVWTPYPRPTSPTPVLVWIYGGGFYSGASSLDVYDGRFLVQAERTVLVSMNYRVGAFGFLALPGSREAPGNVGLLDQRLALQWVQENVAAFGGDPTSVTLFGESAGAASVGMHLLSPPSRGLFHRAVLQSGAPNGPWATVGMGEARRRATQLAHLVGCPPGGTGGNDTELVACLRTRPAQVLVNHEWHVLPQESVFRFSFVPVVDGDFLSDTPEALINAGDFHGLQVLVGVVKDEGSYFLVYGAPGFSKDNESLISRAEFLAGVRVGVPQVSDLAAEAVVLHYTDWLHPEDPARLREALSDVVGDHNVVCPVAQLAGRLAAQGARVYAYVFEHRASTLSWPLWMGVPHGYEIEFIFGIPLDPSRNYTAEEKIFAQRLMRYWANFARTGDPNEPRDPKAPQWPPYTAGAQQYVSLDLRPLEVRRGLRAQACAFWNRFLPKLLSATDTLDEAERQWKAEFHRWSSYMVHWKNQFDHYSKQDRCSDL
T3 sequence (P55303 whole entry): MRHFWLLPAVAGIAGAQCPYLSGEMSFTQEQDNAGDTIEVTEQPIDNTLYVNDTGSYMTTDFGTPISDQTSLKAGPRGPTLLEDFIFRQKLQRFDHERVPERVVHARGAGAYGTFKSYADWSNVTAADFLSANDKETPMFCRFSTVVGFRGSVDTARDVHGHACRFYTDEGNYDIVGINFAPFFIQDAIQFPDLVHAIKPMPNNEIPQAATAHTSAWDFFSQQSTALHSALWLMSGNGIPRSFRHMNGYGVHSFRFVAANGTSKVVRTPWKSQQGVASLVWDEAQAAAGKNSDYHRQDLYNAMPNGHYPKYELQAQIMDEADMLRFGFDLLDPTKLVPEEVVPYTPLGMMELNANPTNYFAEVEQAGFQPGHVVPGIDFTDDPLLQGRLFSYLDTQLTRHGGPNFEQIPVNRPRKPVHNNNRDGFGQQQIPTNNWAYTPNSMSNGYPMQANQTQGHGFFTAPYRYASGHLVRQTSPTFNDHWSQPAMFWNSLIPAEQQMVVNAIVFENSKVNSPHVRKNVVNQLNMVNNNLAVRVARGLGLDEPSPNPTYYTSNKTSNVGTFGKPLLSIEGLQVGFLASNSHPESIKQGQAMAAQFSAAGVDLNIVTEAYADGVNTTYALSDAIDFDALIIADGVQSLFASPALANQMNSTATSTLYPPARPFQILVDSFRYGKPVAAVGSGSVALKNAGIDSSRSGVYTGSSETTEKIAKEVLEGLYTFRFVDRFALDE
Chain of BChE (P06276 29-602, species assumed): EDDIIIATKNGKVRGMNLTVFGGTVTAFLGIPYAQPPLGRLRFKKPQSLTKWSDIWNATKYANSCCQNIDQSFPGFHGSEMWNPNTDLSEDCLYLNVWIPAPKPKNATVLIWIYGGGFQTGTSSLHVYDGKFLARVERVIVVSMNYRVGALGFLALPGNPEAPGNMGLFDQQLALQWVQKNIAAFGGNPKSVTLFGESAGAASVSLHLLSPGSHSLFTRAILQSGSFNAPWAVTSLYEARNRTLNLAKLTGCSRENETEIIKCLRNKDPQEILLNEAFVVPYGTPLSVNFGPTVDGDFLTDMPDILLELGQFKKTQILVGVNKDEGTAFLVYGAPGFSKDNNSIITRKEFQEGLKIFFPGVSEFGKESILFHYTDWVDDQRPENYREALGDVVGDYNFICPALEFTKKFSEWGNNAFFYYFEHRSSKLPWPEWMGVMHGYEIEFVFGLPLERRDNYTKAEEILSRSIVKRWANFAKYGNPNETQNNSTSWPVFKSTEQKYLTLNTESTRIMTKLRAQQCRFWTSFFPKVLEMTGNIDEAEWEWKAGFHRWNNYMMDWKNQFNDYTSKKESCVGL

## COc1ccc(/C=C/C(=O)c2ccccc2)cc1O [Compound 7, E-3-(3-hydroxy-4-methoxyphenyl)-1-phenylprop-2-en-1-one]
[1]
  AChE % (inhibition): 89.8 ± 5.8%
  AChE, Equivalent Concentration of Reference Compound Magniflorine: 0.34 ± 0.01 µg/mL
  AChE, Equivalent Concentration of Reference Compound Rivastigmine: 0.51 ± 0.03 µg/mL
[2]
  HORAC, Gallic Acid Equivalents: 11.5 ± 1.3 µg/mL
[3]
  GR Inhibition (%): 41.8 ± 3.1%
  GR activity (NADPH consumption rate): 1570 ± 116 nmol Depleted NADPH/min
[4]
  BChE % (inhibition): 94.4 ± 4.1%
  BChE, Equivalent Concentration of Reference Compound Magniflorine: 0.37 ± 0.02 µg/mL
  BChE, Equivalent Concentration of Reference Compound Rivastigmine: 0.27 ± 0.01 µg/mL
[5]
  Equivalent Concentration of Acetylsalicylic Acid (COX-2): 7.7 ± 0.1 mg/mL
[6]
  GPx Inhibition (%): 32.4 ± 2.8%
  GPx activity (NADPH consumption rate): 64.4 ± 5.5 nmol Depleted NADPH/min
[7]
  CAT Inhibition (%): 88.1 ± 4.0%
  CAT Inhibition of the H2O2 Depletion: 0.22 ± 0.01 mm/dm^3/min

## O=C(/C=C/c1ccccc1)c1ccccc1 [Compound 5]
[1]
  AChE % (inhibition): 65.7 ± 4.7%
  AChE, Equivalent Concentration of Reference Compound Magniflorine: 0.25 ± 0.02 µg/mL
  AChE, Equivalent Concentration of Reference Compound Rivastigmine: 0.37 ± 0.03 µg/mL
[2]
  HORAC, Gallic Acid Equivalents: 6.1 ± 2.5 µg/mL
[3]
  GR Inhibition (%): 29.1 ± 4.4%
  GR activity (NADPH consumption rate): 1093 ± 165 nmol Depleted NADPH/min
[4]
  BChE % (inhibition): 58.1 ± 3.4%
  BChE, Equivalent Concentration of Reference Compound Magniflorine: 0.23 ± 0.01 µg/mL
  BChE, Equivalent Concentration of Reference Compound Rivastigmine: 0.17 ± 0.01 µg/mL
[5]
  COX-2 Inhibition (%): -
[6]
  GPx Inhibition (%): did not inhibit and -
[7]
  CAT Inhibition (%): 12.5 ±2.4%
  CAT Inhibition of the H2O2 Depletion: 0.03 ± 0.01 mm/dm^3/min

## CC(C)Cc1ccc(C(C)C(=O)O)cc1 (centres unmarked) [Compound 4, ibuprofen, reference compound]
[2]
  HORAC, Gallic Acid Equivalents: 35.7 ± 4.2 µg/mL
[3]
  GR Inhibition (%): 19.9 ± 1.1%
  GR activity (NADPH consumption rate): 747 ± 41 nmol Depleted NADPH/min
[8]
  Reduction of viability of SCC-25 cells, compound combined with US: no significant difference
[9]
  pH of greatest stability of water solutions: 5–7
[10]
  Inhibition of viability of FaDu cells, compound combined with US: no significant difference

## COc1cc(/C=C/C(=O)c2ccccc2)ccc1O [Compound 1, 3-(4-hydroxy-3-methoxyphenyl)-1-phenylprop-2-en-1-one]
[1]
  AChE % (inhibition): 80.5 ± 8.2%
  AChE, Equivalent Concentration of Reference Compound Magniflorine: 0.31 ± 0.03 µg/mL
  AChE, Equivalent Concentration of Reference Compound Rivastigmine: 0.46 ± 0.05 µg/mL
[2]
  HORAC, Gallic Acid Equivalents: 18.7 ± 3.8 µg/mL
[3]
  GR Inhibition (%): 7.6 ± 2.4%
  GR activity (NADPH consumption rate): 286 ± 90 nmol Depleted NADPH/min
[4]
  BChE % (inhibition): 78.0 ± 4.6%
  BChE, Equivalent Concentration of Reference Compound Magniflorine: 0.30 ± 0.02 µg/mL
  BChE, Equivalent Concentration of Reference Compound Rivastigmine: 0.23 ± 0.01 µg/mL
[8]
  Reduction of viability of SCC-25 cells, compound combined with US: ~ 40%
[8]; MTT, compared to control
  Reduction of viability of SCC-25 cells, compound alone: no significant difference
[5]
  Equivalent Concentration of Acetylsalicylic Acid (COX-2): 6.1 ± 0.1 mg/mL
[6]
  GPx Inhibition (%): 30.3 ± 3.6%
  GPx activity (NADPH consumption rate): 60.3 ± 7.1 nmol Depleted NADPH/min
[10]
  Inhibition of viability of FaDu cells, compound combined with US: significantly reduced viability
[7]
  CAT Inhibition (%): 78.6 ± 2.8%
  CAT Inhibition of the H2O2 Depletion: 0.26 ± 0.01 mm/dm^3/min

From PMC10535624, “Curcuminoid Chalcones: Synthesis, Stability, and New Neuroprotective and Sonosensitising Activities” (Pharmaceuticals, 2023)
